Source: PMC11284787, “Ligand-Directed Labeling of the Adenosine A1 Receptor in Living Cells” (Journal of Medicinal Chemistry, 2024)
Where two headings read alike, the source gives them in different places.

Assays:
NL-rA1AR [1] = target: T1, NL-rA1AR (Rattus norvegicus, UniProt P25099); assay: NanoBRET saturation ligand-binding assay, NL-rA1AR
T1 construct: expressed in transfected cells
T1 sequence (P25099 1-326): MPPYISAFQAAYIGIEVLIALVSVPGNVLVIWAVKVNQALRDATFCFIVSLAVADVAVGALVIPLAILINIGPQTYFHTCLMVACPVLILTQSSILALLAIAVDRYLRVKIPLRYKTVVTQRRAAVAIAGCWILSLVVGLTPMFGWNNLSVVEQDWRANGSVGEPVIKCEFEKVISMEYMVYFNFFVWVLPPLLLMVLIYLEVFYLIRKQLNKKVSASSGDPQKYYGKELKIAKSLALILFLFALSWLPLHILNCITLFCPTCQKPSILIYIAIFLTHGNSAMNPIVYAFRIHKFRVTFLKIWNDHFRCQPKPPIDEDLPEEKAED
Protocol: (§1) The ligand-binding properties of the newly synthesized probes were assessed in a series of pharmacological assays. Initially, a NanoBRET[47],[48] saturation binding experiment was used to evaluate the binding affinity of ligand-directed probes functionally labeled with the SulfoCy5 fluorophore (11) to the NanoLuc(NL)-tagged[49] hA1AR expressed in HEK293T cells.
(§2) NanoBRET binding assay. All NanoBRET experiments were performed in white flat […]
(§3) 37 °C for kinetic binding experiments. Emissions were read at 420 nm (80 nm bandpass; […]
(§4) the SulfoCy5-labelled probe. […]
(§5) nm emission by the 420 nm emission. The term “raw BRET ratio” refers to the unprocessed data as no background ratio has been subtracted. In all NanoBRET binding […]
(§6) competitive antagonist selective for the adenosine receptor under investigation […]
(§7) MRS1220 for the A3AR). HEK293T cells stably/transiently expressing Nluc-AR were […]
(§8) were incubated for 1 h at 37 °C. […]
(§9) NanoBRET saturation binding assay. Total and nonspecific saturation binding curves were fit simultaneously using the following equation: […]

NL-hA1AR [2] = target: T2, NL-hA1AR (Homo sapiens, UniProt P30542); assay: NanoBRET saturation ligand-binding assay, NL-hA1AR
T2 construct: expressed in transfected cells
T2 sequence (P30542 1-326): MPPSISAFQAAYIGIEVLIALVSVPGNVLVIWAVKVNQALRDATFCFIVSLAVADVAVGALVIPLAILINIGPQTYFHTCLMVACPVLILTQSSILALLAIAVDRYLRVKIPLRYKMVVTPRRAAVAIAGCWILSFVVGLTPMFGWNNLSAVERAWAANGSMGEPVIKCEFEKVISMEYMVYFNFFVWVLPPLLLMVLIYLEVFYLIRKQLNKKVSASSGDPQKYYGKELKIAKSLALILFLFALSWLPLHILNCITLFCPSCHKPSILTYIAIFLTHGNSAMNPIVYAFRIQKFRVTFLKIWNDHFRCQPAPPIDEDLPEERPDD
Protocol: as §1, §2, §3, §4, §5, §6, §7, §8, §9

rat NL-A1AR = test system: T3, rat NL-A1AR; assay: NanoBRET dissociation kinetics, rat NL-A1AR HEK293 cells; type: binding; conditions: rat NL-A1AR HEK293 cells prelabeled with 250 nM, 10 μM DPCPX
T3 construct: expressed in transfected cells
Protocol: Figure 3 Molecular pharmacology and biochemical characterization of 11 and 12. NanoBRET ligand-binding data were measured in HEK293 cells stably expressing the human NL-A1AR (A–C) or rat NL-A1AR (D–F). […] Data were normalized to maximal BRET signals in the absence of unlabeled competing ligands (total binding, TB). (C, F) NanoBRET dissociation kinetics experiments with 11 (SulfoCy5) performed in human and rat NL-A1AR HEK293T cells, respectively. Cells were treated with 250 nM 11 (SulfoCy5, lilac open circles) for 5 h and CA200645 (black open triangles) for 2 h. […] Each data point represents the combined mean ± SEM from n = 5 (A, C), n = 4 (B, D), and n = 3 (E, F) experiments, each one performed in triplicate. (G) HEK293G cells stably expressing TS-SNAP-A1AR were treated with 300 nM 11 or 130 nM 12 in serum-free media for 2 h at 37 °C and 5% CO2. For samples treated with compound 12, the labeling solution was removed and immediately replaced with 10 mL of serum-free media containing 1 μM Met-Tet-Cy5 and incubated at 37 °C and 5% CO2 for a further 15 min. Untreated cells were used as a control. TS-SNAP-A1AR was purified and separated on an SDS-PAGEgel gel, and direct Cy5 fluorescence was visualized using in-gel fluorescence. The gel shown is representative of three independent experiments. […]
as §3

NL-hA1AR [3] = target: T2, NL-hA1AR; assay: NanoBRET dissociation kinetics, NL-hA1AR HEK293T cells; type: binding; conditions: cells prelabeled with 250 nM for 5 h, BRET monitored 60 min
Protocol: Figure 3 Molecular pharmacology and biochemical characterization of 11 and 12. NanoBRET ligand-binding data were measured in HEK293 cells stably expressing the human NL-A1AR (A–C) or rat NL-A1AR (D–F). […] Data were normalized to maximal BRET signals in the absence of unlabeled competing ligands (total binding, TB). (C, F) NanoBRET dissociation kinetics experiments with 11 (SulfoCy5) performed in human and rat NL-A1AR HEK293T cells, respectively. Cells were treated with 250 nM 11 (SulfoCy5, lilac open circles) for 5 h and CA200645 (black open triangles) for 2 h. […] TS-SNAP-A1AR was purified and separated on an SDS-PAGEgel gel, and direct Cy5 fluorescence was visualized using in-gel fluorescence. […]
The small reduction in the BRET signal observed toward the end of the reads could be mostly likely ascribed to substrate (furimazine) consumption. […] To confirm covalent labeling of A1AR by 11 and 12, HEK293G cells stably expressing a Twin-Strep-SNAP-A1AR(TS-SNAP-A1R) construct were treated with 11 or 12 prior to purification, separation by sodium dodecyl sulfate-polyacrylamide gel electrophoresis (SDS-PAGE) and visualization of labeled samples by in-gel fluorescence (Figure 3G). […]
as §3

NL-rA1AR [4] = target: T1, NL-rA1AR; assay: NanoBRET competition ligand-binding assay (CA200645 tracer), NL-rA1AR
NL-hA2AAR = target: T4, NL-hA2AAR (Homo sapiens, UniProt P29274); assay: NanoBRET competition ligand-binding assay (CA200645 tracer), NL-hA2AAR; conditions: CA200645 (25 nM) tracer, transient HEK293T, mean ± SEM; read-out: affinity values pKi, NL-hA2AAR (converted)
T4 construct: expressed in transfected cells; host or cells: HEK293T, transient transfection (FuGENE)
T4 sequence (P29274 whole entry): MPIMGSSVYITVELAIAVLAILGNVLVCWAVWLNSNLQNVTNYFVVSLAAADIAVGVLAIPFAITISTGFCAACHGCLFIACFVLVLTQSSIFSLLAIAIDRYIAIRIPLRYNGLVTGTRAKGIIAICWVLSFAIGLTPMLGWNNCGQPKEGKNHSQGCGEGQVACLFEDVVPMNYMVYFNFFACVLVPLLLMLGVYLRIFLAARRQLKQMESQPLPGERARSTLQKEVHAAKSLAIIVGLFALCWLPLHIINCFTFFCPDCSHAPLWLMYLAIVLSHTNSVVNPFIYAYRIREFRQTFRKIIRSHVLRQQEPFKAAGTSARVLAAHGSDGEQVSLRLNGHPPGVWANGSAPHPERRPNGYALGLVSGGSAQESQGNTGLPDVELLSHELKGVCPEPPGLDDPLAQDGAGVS

CCCCn1c(=O)c2[nH]c(C34CCC(C(=O)NCCNC(=O)CCNC(=O)c5ccc(OC(=O)CCCCC[N+]6=C(/C=C/C=C/C=C7/N(C)c8ccc(S(=O)(=O)O)cc8C7(C)C)C(C)(C)c7cc(S(=O)(=O)[O-])ccc76)c(F)c5)(CC3)CC4)nc2n(CCCC)c1=O [Compound 11, 1-(6-(4-((3-((2-(4-(1,3-Dibutyl-2,6-dioxo-2,3,6,7-tetrahydro-1H-purin-8-yl)bicyclo[2.2.2]octane-1-carboxamido)ethyl)amino)-3-oxopropyl)carbamoyl)-2-fluorophenoxy)-6-oxohexyl)-3,3-dimethyl-2-((1E,3E)-5-((E)-1,3,3-trimethyl-5-sulfoindolin-2-ylidene)penta-1,3-dien-1-yl)-3H-indol-1-ium-5-sulfonate]
Kd (NL-rA1AR [1]; HEK293T cells stably expressing rat NanoLuc-A1AR, mean ± SEM, read-out: affinity values pKD, NL-rA1AR (converted)): 9.12 nM | Kd (NL-rA1AR [1]; supplementary CSV, read-out: AFFINITY (A1AR_rat) pKD (converted)): 10.2 nM | Kd (NL-hA1AR [2]; HEK293T cells stably expressing NL-hA1AR, 1 h 37 °C, mean ± SEM, read-out: affinity values pKD, NL-hA1AR (converted)): 30.9 nM | greater affinity for the NL-A1AR compared to the NL-A2AAR (saturation binding) (NL-hA1AR [2]; selectivity from pKD values): 7 fold | ability to covalently transfer the fluorophore to the A1AR (dissociation experiment) (rat NL-A1AR): could be retained across species | change in BRET signal after addition of 10 μM DPCPX (NL-hA1AR [3]): very little change in the BRET signal

CCCCn1c(=O)c2[nH]c(C34CCC(C(=O)NCCNC(=O)CCNC(=O)c5ccc(OC(=O)CCC(=O)NCCOCCOCCNC(=O)O[C@H]6CC/C=C/CCC6)c(F)c5)(CC3)CC4)nc2n(CCCC)c1=O [Compound 12, 4-((3-((2-(4-(1,3-Dibutyl-2,6-dioxo-2,3,6,7-tetrahydro-1H-purin-8-yl)bicyclo[2.2.2]octane-1-carboxamido)ethyl)amino)-3-oxopropyl)carbamoyl)-2-fluorophenyl (R,E)-1-(Cyclooct-4-en-1-yloxy)-1,12-dioxo-5,8-dioxa-2,11-diazapentadecan-15-oate]
Ki (NL-rA1AR [4]; CA200645 (25 nM) tracer, HEK293T cells, mean ± SEM, read-out: affinity values pKi, NL-rA1AR (converted)): 10.2 nM | Ki (NL-rA1AR [4]; supplementary CSV, read-out: AFFINITY (A1AR_rat) pKi (converted)): 8.32 nM | Ki (NL-hA2AAR): 1380 nM
